{"source": "patent US20250197864A1", "about": "“LNCRNA TRANSCRIPTS IN MELANOMAGENESIS” (The Regents of the University of California, priority 2021, published 2025)", "system": "gene expression in D04 melanoma cells", "assay": "RNA-Seq differential expression analysis (DESeq2)", "assay_type": "cell-based, human", "protocol": "Total RNA was isolated using the RNeasy mini Kit (QIAGEN) following the manufacturer's protocol. Quality check for extracted RNA was done using 2100 Bioanalyzer (Agilent Technologies, USA) or Tapestation System (Agilent Technologies, USA). […] For samples used for identification of MAPK-responsive lncRNAs, paired-end, 101-bp sequencing was performed by Centrillion Genomic Services (Centrillion Biosciences, USA) on an Illumina HiSeq 2000. For DE gene analysis of ASO-transfected D04 samples, paired-end, 2×150-bp sequencing was performed by Genewiz (USA) on a Illumina HiSeq.\nSequence reads were aligned to the human genome (hg19) using TopHat (Version 2.0.11).\nDifferential expression (DE) analysis was done using DESeq2. Differentially expressed genes were defined by more than 1.5-fold changes (log 2 >0.58 or <−0.58) in expression with FDR<0.05. GO term analysis was done using DAVID Functional Annotation Clustering analysis.\nTo examine the biomolecular changes upon TRASH-inhibition in melanoma, D04 cells were treated with TRASH-ASOs (SEQ ID NO:15) and Control-ASOs and RNA was extracted and used for RNA-Seq. […] These GO terms consisted of genes encoding growth factors, tyrosine kinases, G protein coupled receptor subunits, and collagen subunits. Scatter plot diagram showing differential gene expression after TRASH-ASO treatment compared to Control-ASO treatment. (cut-off for significance was adjusted p-value <0.05). Data was obtained from RNA-Seq of D04 melanoma cells, treatment period was three days. (FIG. 5c)"}
{"sequence": "GACTGGAGATAATTAA (gapmer, pattern not given here) [SEQ ID NO: 15, GapmeR ASO targeting AC004540.4 (TRASH), exon region of both isoforms; used for in vitro experiments]", "values": [{"measurement": "log2FoldChange AC010327.3", "setting": "ENSG00000267577, up-regulated list", "value": 1.04}, {"measurement": "log2FoldChange CARD8-AS1", "setting": "ENSG00000268001, up-regulated list", "value": 0.7573}, {"measurement": "log2FoldChange AC005261.3", "setting": "ENSG00000268713, up-regulated list", "value": 0.7391}, {"measurement": "log2FoldChange AL513477.1", "setting": "ENSG00000269896, up-regulated list", "value": 1.066}, {"measurement": "log2FoldChange AL606834.1", "setting": "ENSG00000269906, up-regulated list", "value": 0.6043}, {"measurement": "log2FoldChange ZNF559-ZNF177", "setting": "ENSG00000270011, up-regulated list", "value": 0.8965}, {"measurement": "log2FoldChange AC112220.2", "setting": "ENSG00000271020, up-regulated list", "value": 0.8814}, {"measurement": "log2FoldChange AC112220.4", "setting": "ENSG00000271643, up-regulated list", "value": 0.8013}, {"measurement": "log2FoldChange AC004890.3", "setting": "ENSG00000271664, up-regulated list", "value": 0.9879}, {"measurement": "log2FoldChange AL365181.3", "setting": "ENSG00000272405, up-regulated list", "value": 1.112}, {"measurement": "log2FoldChange AL365203.2", "setting": "ENSG00000273038, up-regulated list", "value": 0.6423}, {"measurement": "log2FoldChange AC037198.1", "setting": "ENSG00000276107, up-regulated list", "value": 0.6896}, {"measurement": "log2FoldChange AC245041.2", "setting": "ENSG00000276850, up-regulated list", "value": 1.06}, {"measurement": "log2FoldChange ENSG00000279184 (Gene.name NA)", "setting": "ENSG00000279184, up-regulated list", "value": 0.592}, {"measurement": "log2FoldChange AC005261.5", "setting": "ENSG00000279541, up-regulated list", "value": 0.6302}, {"measurement": "log2FoldChange AC104581.4", "setting": "ENSG00000280046, up-regulated list", "value": 0.8564}, {"measurement": "log2FoldChange UCKL1-AS1", "setting": "ENSG00000280213, up-regulated list", "value": 0.6201}, {"measurement": "log2FoldChange LINC01173", "setting": "ENSG00000280744, up-regulated list", "value": 0.9254}, {"measurement": "log2FoldChange AC139493.2", "setting": "ENSG00000283235, up-regulated list", "value": 0.8882}, {"measurement": "log2FoldChange", "setting": "EPHA3 (ENSG00000044524)", "value": "−0.647"}, {"measurement": "log2FoldChange", "setting": "ETS2 (ENSG00000157557)", "value": 1.279}, {"measurement": "log2FoldChange", "setting": "EVI2A (ENSG00000126860)", "value": 1.514}, {"measurement": "log2FoldChange", "setting": "EXOC3L2 (ENSG00000283632)", "value": "−0.6947"}, {"measurement": "log2FoldChange", "setting": "FAM129A (ENSG00000135842)", "value": "−0.6591"}, {"measurement": "log2FoldChange", "setting": "FAM172BP (ENSG00000175841)", "value": 2.273}, {"measurement": "log2FoldChange", "setting": "FAM180A (ENSG00000189320)", "value": 2.047}, {"measurement": "log2FoldChange", "setting": "FAM198B-AS1 (ENSG00000248429)", "value": "−0.6307"}, {"measurement": "log2FoldChange", "setting": "FBXO2 (ENSG00000116661)", "value": "−0.638"}, {"measurement": "log2FoldChange", "setting": "FBXO9 (ENSG00000112146)", "value": "−0.5825"}, {"measurement": "log2FoldChange", "setting": "FBXO40 (ENSG00000163833)", "value": 1.589}, {"measurement": "log2FoldChange", "setting": "FGF1 (ENSG00000113578)", "value": "−0.5817"}, {"measurement": "log2FoldChange", "setting": "FHDC1 (ENSG00000137460)", "value": "−0.7072"}, {"measurement": "log2FoldChange", "setting": "FOSB (ENSG00000125740)", "value": 2.191}, {"measurement": "log2FoldChange", "setting": "FRK (ENSG00000111816)", "value": "−0.6911"}, {"measurement": "log2FoldChange", "setting": "FRRS1 (ENSG00000156869)", "value": "−0.5906"}, {"measurement": "log2FoldChange", "setting": "FYN (ENSG00000010810)", "value": "−0.6273"}, {"measurement": "log2FoldChange", "setting": "GABRA3 (ENSG00000011677)", "value": "−0.5841"}, {"measurement": "log2FoldChange", "setting": "GAPDHP33 (ENSG00000240244)", "value": 1.514}, {"measurement": "log2FoldChange", "setting": "GAREM1 (ENSG00000141441)", "value": "−0.6261"}, {"measurement": "log2FoldChange", "setting": "GAS1 (ENSG00000180447)", "value": "−0.6542"}, {"measurement": "log2FoldChange", "setting": "GAS7 (ENSG00000007237)", "value": "−0.5864"}, {"measurement": "log2FoldChange", "setting": "GGT5 (ENSG00000099998)", "value": "−0.6741"}, {"measurement": "log2FoldChange", "setting": "GNG2 (ENSG00000186469)", "value": "−0.6003"}, {"measurement": "log2FoldChange", "setting": "GNGT2 (ENSG00000167083)", "value": 1.241}, {"measurement": "log2FoldChange", "setting": "GPR162 (ENSG00000250510)", "value": "−0.5935"}, {"measurement": "log2FoldChange", "setting": "GPRIN3 (ENSG00000185477)", "value": "−0.66"}, {"measurement": "log2FoldChange", "setting": "GSG1 (ENSG00000111305)", "value": 2.332}, {"measurement": "log2FoldChange", "setting": "H2BFWT (ENSG00000123569)", "value": 2.336}, {"measurement": "log2FoldChange", "setting": "HDAC2-AS2 (ENSG00000228624)", "value": 1.256}, {"measurement": "log2FoldChange", "setting": "HDAC4 (ENSG00000068024)", "value": "−0.5923"}, {"measurement": "log2FoldChange", "setting": "HEY1 (ENSG00000164683)", "value": "−0.6645"}, {"measurement": "log2FoldChange", "setting": "HHIPL2 (ENSG00000143512)", "value": "−0.6841"}, {"measurement": "log2FoldChange", "setting": "HID1 (ENSG00000167861)", "value": 1.325}, {"measurement": "log2FoldChange", "setting": "HLA-DMA (ENSG00000204257)", "value": "−0.582"}, {"measurement": "log2FoldChange", "setting": "HLA-DMB (ENSG00000242574)", "value": "−0.6646"}, {"measurement": "log2FoldChange", "setting": "HLA-DPB1 (ENSG00000223865)", "value": "−0.696"}, {"measurement": "log2FoldChange", "setting": "HLA-DRA (ENSG00000204287)", "value": "−0.641"}, {"measurement": "log2FoldChange", "setting": "HLA-V (ENSG00000181126)", "value": 1.398}, {"measurement": "log2FoldChange", "setting": "HS6ST2 (ENSG00000171004)", "value": "−0.588"}, {"measurement": "log2FoldChange", "setting": "HSD3B1 (ENSG00000203857)", "value": "−0.6356"}, {"measurement": "log2FoldChange", "setting": "HSPA2 (ENSG00000126803)", "value": "−0.6741"}, {"measurement": "log2FoldChange", "setting": "IFI27 (ENSG00000165949)", "value": "−0.6194"}, {"measurement": "log2FoldChange", "setting": "IFI27L1 (ENSG00000165948)", "value": "−0.5945"}, {"measurement": "log2FoldChange", "setting": "IGFBP5 (ENSG00000115461)", "value": "−0.631"}, {"measurement": "log2FoldChange", "setting": "IGSF11 (ENSG00000144847)", "value": "−0.5994"}, {"measurement": "log2FoldChange", "setting": "IL24 (ENSG00000162892)", "value": 2.412}, {"measurement": "log2FoldChange", "setting": "IMMP2L (ENSG00000184903)", "value": "−0.6662"}, {"measurement": "log2FoldChange", "setting": "ITGB2 (ENSG00000160255)", "value": 1.646}, {"measurement": "log2FoldChange", "setting": "KCNK1 (ENSG00000135750)", "value": 4.668}, {"measurement": "log2FoldChange", "setting": "KCNQ5 (ENSG00000185760)", "value": "−0.6919"}, {"measurement": "log2FoldChange", "setting": "KIAA0319L (ENSG00000142687)", "value": "−0.5992"}, {"measurement": "log2FoldChange", "setting": "KIF1A (ENSG00000130294)", "value": 6.604}, {"measurement": "log2FoldChange", "setting": "KIRREL1 (ENSG00000183853)", "value": "−0.6846"}, {"measurement": "log2FoldChange", "setting": "KISS1 (ENSG00000170498)", "value": 1.679}, {"measurement": "log2FoldChange", "setting": "KITLG (ENSG00000049130)", "value": "−0.5925"}, {"measurement": "log2FoldChange", "setting": "KLK2 (ENSG00000167751)", "value": 2.321}, {"measurement": "log2FoldChange", "setting": "KRT15 (ENSG00000171346)", "value": 1.605}, {"measurement": "log2FoldChange", "setting": "KRT34 (ENSG00000131737)", "value": 3.32}, {"measurement": "log2FoldChange", "setting": "KRT73-AS1 (ENSG00000257495)", "value": 2.888}, {"measurement": "log2FoldChange", "setting": "KRT75 (ENSG00000170454)", "value": 1.915}, {"measurement": "log2FoldChange", "setting": "LBH (ENSG00000213626)", "value": "−0.6972"}, {"measurement": "log2FoldChange", "setting": "LCK (ENSG00000182866)", "value": 1.307}, {"measurement": "log2FoldChange", "setting": "LCN2 (ENSG00000148346)", "value": 1.647}, {"measurement": "log2FoldChange", "setting": "LDHD (ENSG00000166816)", "value": 1.623}, {"measurement": "log2FoldChange", "setting": "LDLR (ENSG00000130164)", "value": "−0.588"}, {"measurement": "log2FoldChange", "setting": "LIFR (ENSG00000113594)", "value": "−0.5862"}, {"measurement": "log2FoldChange", "setting": "LINC00520 (ENSG00000258791)", "value": 2.38}]}
